Numbers after ± are expanded uncertainties.
How the values were obtained:
[1] = refractive index (Na D-line) (dimensionless); details: 298.15 K; 101.33 kPa; Liquid; Standard Abbe refractometry
[2] = 298.15 K; 101.33 kPa; Liquid; Vibrating tube method

Row | SMILES | refractive index [1] | mass density [2] [kg/m3]
1 | CC(C)C(=O)O [2-methylpropanoic acid] | 1.3899 ± 0.0041 | 941.63 ± 6
2 | CCCCO [butan-1-ol] | 1.3941 ± 0.0041 | 807.96 ± 6
3 | CCCC(=O)O [butanoic acid] | 1.3981 ± 0.0041 | 952.1 ± 6
4 | CC(C)OC(C)C [diisopropyl ether] | 1.3674 ± 0.004 | 723.8 ± 6
5 | CO [methanol] | 1.3281 ± 0.0041 | 791 ± 6
6 | O [water] | 1.3324 ± 0.0041 | 

Reference: the NIST ThermoML archive (doi:10.1021/acs.jced.5b00527)
